Source: ChEMBL document CHEMBL3351396, “Synthesis of the novel elemonic acid derivatives as Pin1 inhibitors” (Bioorg Med Chem Lett, 2014)

The compounds below were run against Peptidyl-prolyl cis-trans isomerase NIMA-interacting 1 (Homo sapiens, UniProt Q13526) (assay: Inhibition of Pin1 (unknown origin) using Suc-Ala-Glu-Pro-Phe-4-nitroanilide as substrate after 30 mins by protease-coupled assay).
Chain of Peptidyl-prolyl cis-trans isomerase NIMA-interacting 1 (Q13526 whole entry): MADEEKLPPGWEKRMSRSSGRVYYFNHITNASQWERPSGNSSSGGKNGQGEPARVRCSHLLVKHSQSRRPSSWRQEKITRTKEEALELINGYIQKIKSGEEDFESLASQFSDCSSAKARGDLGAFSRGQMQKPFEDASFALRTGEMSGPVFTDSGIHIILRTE
CC1(C)C(=O)CC[C@]2(C)C3=C(CC[C@@H]12)[C@@]1(C)CC[C@@H]([C@H](CCC(=O)O)C(=O)OCc2ccccc2)[C@]1(C)CC3=O gave an IC50 of 1.47 µM.
CC1(C)C(=O)CC[C@]2(C)C3=C(CC[C@@H]12)[C@@]1(C)CC[C@@H]([C@H](CCC(=O)O)C(=O)OCc2ccccc2)[C@]1(C)CC3 was tested, and the IC50 was 3.68 µM.
For CC1(C)C(=O)CC[C@]2(C)C3=C(C(=O)C[C@@H]12)[C@@]1(C)CC[C@@H]([C@H](CCC(=O)O)C(=O)OCc2ccccc2)[C@]1(C)CC3, the IC50 was greater than 40 µM.
In the case of CC1(C)C(=O)CC[C@]2(C)C3=C(CC[C@@H]12)[C@@]1(C)CC[C@@H]([C@H](CCC(=O)N2CCNCC2)C(=O)OCc2ccccc2)[C@]1(C)CC3, the IC50 is reported as greater than 40 µM.
CN1CCN(C(=O)CC[C@H](C(=O)OCc2ccccc2)[C@@H]2CC[C@]3(C)C4=C(CC[C@@]23C)[C@@]2(C)CCC(=O)C(C)(C)[C@@H]2CC4)CC1 was tested, and the IC50 was 31.5 µM.
For CN(C)C(=O)CC[C@H](C(=O)OCc1ccccc1)[C@@H]1CC[C@]2(C)C3=C(CC[C@@]12C)[C@@]1(C)CCC(=O)C(C)(C)[C@@H]1CC3, the IC50 was 0.83 µM.
Compound COC(=O)CC[C@H](C(=O)OCc1ccccc1)[C@@H]1CC[C@]2(C)C3=C(CC[C@@]12C)[C@@]1(C)CCC(=O)C(C)(C)[C@@H]1CC3 has an IC50 greater than 40 µM.
CC(C)=CCC[C@H](C(=O)OCc1ccccc1)[C@@H]1CC[C@]2(C)C3=C(CC[C@@]12C)[C@@]1(C)C/C(=C\C(=O)O)C(=O)C(C)(C)[C@@H]1CC3 gave an IC50 of 0.57 µM.
CC(C)=CCC[C@H](C(=O)OCc1ccccc1)[C@@H]1CC[C@]2(C)C3=C(CC[C@@]12C)[C@@]1(C)C/C(=C\C(=O)N2CCNCC2)C(=O)C(C)(C)[C@@H]1CC3 showed an IC50 greater than 40 µM.
CC(C)=CCC[C@H](C(=O)OCc1ccccc1)[C@@H]1CC[C@]2(C)C3=C(CC[C@@]12C)[C@@]1(C)C/C(=C\C(=O)N2CCN(C)CC2)C(=O)C(C)(C)[C@@H]1CC3 showed an IC50 of 32.3 µM.
In the case of CC1(C)C(=O)CC[C@]2(C)C3=C(CC[C@@H]12)[C@@]1(C)CC[C@@H]([C@H](CCC(N)=O)C(=O)OCc2ccccc2)[C@]1(C)CC3, the IC50 is reported as greater than 40 µM.
CC1(C)C(=O)CC[C@]2(C)C3=C(CC[C@@H]12)[C@@]1(C)CC[C@@H]([C@H](CCC#N)C(=O)OCc2ccccc2)[C@]1(C)CC3 was tested, and the IC50 was 14.1 µM.
CC1(C)C(=O)CC[C@]2(C)C3=C(CC[C@@H]12)[C@@]1(C)CC[C@@H]([C@H](CCc2nnn[nH]2)C(=O)OCc2ccccc2)[C@]1(C)CC3 showed an IC50 of 2.6 µM.
CC(C)=CCC[C@H](C(=O)O)[C@@H]1CC[C@]2(C)C3=C(CC[C@@]12C)[C@@]1(C)CCC(=O)C(C)(C)[C@@H]1CC3 showed an IC50 of 13.2 µM.
